Test results reported in ChEMBL document CHEMBL6182944, “Substrate Specificity of the Organic Cation Transporters MATE1 and MATE2K and Functional Overlap with OCT1 and OCT2” (J Med Chem, 2025).

Columns and labels:
MATE1 = biological target: T1, MATE1 (Homo sapiens, UniProt Q96FL8); assay: in vitro
T1 sequence (Q96FL8 whole entry): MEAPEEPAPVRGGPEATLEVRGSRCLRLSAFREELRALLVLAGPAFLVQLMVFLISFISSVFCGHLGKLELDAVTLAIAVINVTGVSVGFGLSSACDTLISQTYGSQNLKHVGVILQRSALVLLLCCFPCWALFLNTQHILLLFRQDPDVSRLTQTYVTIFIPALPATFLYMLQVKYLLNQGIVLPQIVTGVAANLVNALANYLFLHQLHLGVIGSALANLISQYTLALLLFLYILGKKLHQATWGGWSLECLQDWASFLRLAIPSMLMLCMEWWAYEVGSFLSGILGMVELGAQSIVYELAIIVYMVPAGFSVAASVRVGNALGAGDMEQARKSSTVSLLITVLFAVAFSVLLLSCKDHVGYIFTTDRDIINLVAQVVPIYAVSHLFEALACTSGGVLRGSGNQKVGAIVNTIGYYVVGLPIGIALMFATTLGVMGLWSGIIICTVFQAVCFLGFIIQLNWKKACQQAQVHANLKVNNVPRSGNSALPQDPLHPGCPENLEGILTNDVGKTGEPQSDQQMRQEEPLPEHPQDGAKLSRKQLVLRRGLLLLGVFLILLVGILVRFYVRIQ

MATE2-K = biological target: T2, MATE2-K (Homo sapiens, UniProt Q86VL8); assay: in vitro
T2 sequence (Q86VL8 whole entry): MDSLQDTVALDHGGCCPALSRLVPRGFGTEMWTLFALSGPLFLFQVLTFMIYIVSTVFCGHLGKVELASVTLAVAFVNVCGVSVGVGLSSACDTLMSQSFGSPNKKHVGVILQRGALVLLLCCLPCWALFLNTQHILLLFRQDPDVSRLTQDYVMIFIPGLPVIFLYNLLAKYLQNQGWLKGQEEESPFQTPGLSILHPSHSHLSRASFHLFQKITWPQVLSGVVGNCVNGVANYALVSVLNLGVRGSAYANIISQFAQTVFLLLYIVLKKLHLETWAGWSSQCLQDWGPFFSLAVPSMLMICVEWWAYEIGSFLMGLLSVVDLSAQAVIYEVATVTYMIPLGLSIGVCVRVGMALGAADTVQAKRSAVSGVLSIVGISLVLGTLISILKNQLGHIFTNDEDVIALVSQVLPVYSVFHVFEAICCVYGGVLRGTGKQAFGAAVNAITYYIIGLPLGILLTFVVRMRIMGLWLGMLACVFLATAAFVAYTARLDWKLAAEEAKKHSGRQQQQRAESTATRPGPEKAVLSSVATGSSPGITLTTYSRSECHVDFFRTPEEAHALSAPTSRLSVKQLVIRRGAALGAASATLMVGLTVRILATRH

[1] = HEK293 cells expressing MATE2-K

OCCN1CCN(CCCN2c3ccccc3Sc3ccc(C(F)(F)F)cc32)CC1 [FLUPHENAZINE]
uptake ratio at 1 min, 2.5 µM (MATE1; HEK293 cells expressing MATE1): < 2
uptake ratio at 1 min, 2.5 µM (MATE2-K; [1]): < 2

NCCCC(=O)O [GAMMA-AMINOBUTYRIC ACID]
uptake ratio at 1 min, 2.5 µM (MATE1; HEK293 cells expressing MATE1): < 2
uptake ratio at 1 min, 2.5 µM (MATE2-K; [1]): < 2

Nc1ccn([C@@H]2O[C@H](CO)[C@@H](O)C2(F)F)c(=O)n1 [GEMCITABINE]
uptake ratio at 1 min, 2.5 µM (MATE1; HEK293 cells expressing MATE1): < 2
uptake ratio at 1 min, 2.5 µM (MATE2-K; [1]): < 2

Oc1ccc(CC2NCCc3cc(O)c(O)cc32)cc1 (stereo not drawn) [HIGENAMINE]
uptake ratio at 1 min, 2.5 µM (MATE1; HEK293 cells expressing MATE1): > 2
uptake ratio at 1 min, 2.5 µM (MATE2-K; [1]): > 2

NCCc1c[nH]cn1 [HISTAMINE]
uptake ratio at 1 min, 2.5 µM (MATE1; hek293): > 2
uptake ratio at 1 min, 2.5 µM (MATE2-K; hek293): < 2

CCCCCCCN(CC)CCCC(O)c1ccc(NS(C)(=O)=O)cc1 (stereo not drawn) [IBUTILIDE]
uptake ratio at 1 min, 2.5 µM (MATE1; HEK293 cells expressing MATE1): < 2
uptake ratio at 1 min, 2.5 µM (MATE2-K; [1]): < 2

N=C(N)NCc1cccc(I)c1 [IOBENGUANE]
uptake ratio at 1 min, 2.5 µM (MATE1; HEK293 cells expressing MATE1): > 2
uptake ratio at 1 min, 2.5 µM (MATE2-K; [1]): > 2

CCC(NC(C)C)C(O)c1ccc(O)c(O)c1 (stereo not drawn) [ISOETHARINE]
uptake ratio at 1 min, 2.5 µM (MATE1; HEK293 cells expressing MATE1): > 2
uptake ratio at 1 min, 2.5 µM (MATE2-K; [1]): > 2

CC(C)NCC(O)c1ccc(O)c(O)c1 (stereo not drawn) [ISOPROTERENOL]
uptake ratio at 1 min, 2.5 µM (MATE1; HEK293 cells expressing MATE1): > 2
uptake ratio at 1 min, 2.5 µM (MATE2-K; [1]): > 2

O=C(C[S+]([O-])Cc1ccco1)NC/C=C\COc1cc(CN2CCCCC2)ccn1 (stereo not drawn) [LAFUTIDINE]
uptake ratio at 1 min, 2.5 µM (MATE1; HEK293 cells expressing MATE1): < 2
uptake ratio at 1 min, 2.5 µM (MATE2-K; [1]): < 2

C[N+](C)(C)C[C@H](O)CC(=O)[O-] [LEVOCARNITINE]
uptake ratio at 1 min, 2.5 µM (MATE1; HEK293 cells expressing MATE1): < 2
uptake ratio at 1 min, 2.5 µM (MATE2-K; [1]): < 2

C[N+]1(C)CCCC(OC(=O)C(O)(c2ccccc2)c2ccccc2)C1 (stereo not drawn) [MEPENZOLATE BROMIDE]
uptake ratio at 1 min, 2.5 µM (MATE1; HEK293 cells expressing MATE1): > 2
uptake ratio at 1 min, 2.5 µM (MATE2-K; [1]): > 2

CC(C)NCC(O)c1cc(O)cc(O)c1 (stereo not drawn) [METAPROTERENOL]
uptake ratio at 1 min, 2.5 µM (MATE1; HEK293 cells expressing MATE1): > 2
uptake ratio at 1 min, 2.5 µM (MATE2-K; [1]): > 2

Clc1ccc(COC(Cn2ccnc2)c2ccc(Cl)cc2Cl)c(Cl)c1 (stereo not drawn) [MICONAZOLE]
uptake ratio at 1 min, 2.5 µM (MATE1; HEK293 cells expressing MATE1): < 2
uptake ratio at 1 min, 2.5 µM (MATE2-K; [1]): < 2

CNC(C)Cc1ccc2c(c1)OCO2 (stereo not drawn) [MIDOMAFETAMINE]
uptake ratio at 1 min, 2.5 µM (MATE1; HEK293 cells expressing MATE1): < 2
uptake ratio at 1 min, 2.5 µM (MATE2-K; [1]): < 2

Nc1nc(CC(=O)Nc2ccc(CCNC[C@H](O)c3ccccc3)cc2)cs1 [MIRABEGRON]
uptake ratio at 1 min, 2.5 µM (MATE1; HEK293 cells expressing MATE1): > 2
uptake ratio at 1 min, 2.5 µM (MATE2-K; [1]): > 2

Cc1ncc(C[n+]2csc(CCOP(=O)(O)O)c2C)c(N)n1 [MONOPHOSPHOTHIAMINE]
uptake ratio at 1 min, 2.5 µM (MATE1; HEK293 cells expressing MATE1): < 2
uptake ratio at 1 min, 2.5 µM (MATE2-K; [1]): < 2

CC(C)(C)NCC(O)COc1cccc2c1CC(O)C(O)C2 (stereo not drawn) [NADOLOL]
uptake ratio at 1 min, 2.5 µM (MATE1; HEK293 cells expressing MATE1): > 2
uptake ratio at 1 min, 2.5 µM (MATE2-K; [1]): > 2

OC(CNCC(O)C1CCc2cc(F)ccc2O1)C1CCc2cc(F)ccc2O1 (stereo not drawn) [NEBIVOLOL]
uptake ratio at 1 min, 2.5 µM (MATE1; HEK293 cells expressing MATE1): < 2
uptake ratio at 1 min, 2.5 µM (MATE2-K; [1]): < 2

O=C(O)c1cccnc1 [NIACIN]
uptake ratio at 1 min, 2.5 µM (MATE1; hek293): < 2
uptake ratio at 1 min, 2.5 µM (MATE2-K; hek293): < 2

CNC(=O)c1cccnc1 [NICOTINYL METHYLAMIDE]
uptake ratio at 1 min, 2.5 µM (MATE1; HEK293 cells expressing MATE1): > 2
uptake ratio at 1 min, 2.5 µM (MATE2-K; [1]): > 2

CNC(=C[N+](=O)[O-])NCCSCc1csc(CN(C)C)n1 [NIZATIDINE]
uptake ratio at 1 min, 2.5 µM (MATE1; HEK293 cells expressing MATE1): > 2
uptake ratio at 1 min, 2.5 µM (MATE2-K; [1]): > 2

NCC(O)c1cccc(O)c1 (stereo not drawn) [NORFENEFRINE]
uptake ratio at 1 min, 2.5 µM (MATE1; HEK293 cells expressing MATE1): > 2
uptake ratio at 1 min, 2.5 µM (MATE2-K; [1]): < 2

COc1cc(C(O)CN)ccc1O (stereo not drawn) [NORMETANEPHRINE]
uptake ratio at 1 min, 2.5 µM (MATE1; HEK293 cells expressing MATE1): < 2
uptake ratio at 1 min, 2.5 µM (MATE2-K; [1]): < 2

NCC(O)c1ccc(O)cc1 (stereo not drawn) [OCTOPAMINE]
uptake ratio at 1 min, 2.5 µM (MATE1; HEK293 cells expressing MATE1): > 2
uptake ratio at 1 min, 2.5 µM (MATE2-K; [1]): < 2

CC[N+](C)(CC)CCOC(=O)C(O)(c1ccccc1)C1CCCCC1 (stereo not drawn) [OXYPHENONIUM]
uptake ratio at 1 min, 2.5 µM (MATE1; HEK293 cells expressing MATE1): > 2
uptake ratio at 1 min, 2.5 µM (MATE2-K; [1]): > 2

CC(C)(CO)[C@@H](O)C(=O)NCCC(=O)O [PANTOTHENIC ACID]
uptake ratio at 1 min, 2.5 µM (MATE1; HEK293 cells expressing MATE1): < 2
uptake ratio at 1 min, 2.5 µM (MATE2-K; [1]): < 2

NCCc1ccccc1 [PHENETHYLAMINE]
uptake ratio at 1 min, 2.5 µM (MATE1; HEK293 cells expressing MATE1): < 2
uptake ratio at 1 min, 2.5 µM (MATE2-K; [1]): < 2

CCC1(c2ccccc2)C(=O)NC(=O)NC1=O [PHENOBARBITAL]
uptake ratio at 1 min, 2.5 µM (MATE1; HEK293 cells expressing MATE1): < 2
uptake ratio at 1 min, 2.5 µM (MATE2-K; [1]): < 2
